Laboratory results: publication PMC8933379, “Evaluation of the absolute oral bioavailability of the anaplastic lymphoma kinase/c-ROS oncogene 1 kinase inhibitor lorlatinib in healthy participants” (Cancer Chemotherapy and Pharmacology, 2021)
Like-named read-outs stand apart in the source and are kept apart here.

Legend:
[1] = design: method as in PMID 32441835; settings: cited from earlier work; for Total drug-related radioactivity (parent plus metabolites) recovered in urine: depends on radioactivity placement on the molecule
[2] = used to estimate hepatic blood clearance; no reference given; cited from earlier work
[3] = Absolute oral bioavailability crossover study: plasma pharmacokinetics (LC-MS/MS, non-compartmental analysis); type: in vivo, human; settings: for half-life: read-out: t½ (plasma terminal half-life) (converted); for Tmax: median (range)
Method: This was an open-label, phase 1, randomized two-sequence, two-treatment, two-period, crossover study in healthy participants. Approximately 12 participants were to be randomized in a 1:1 ratio to receive one of two treatment sequences: lorlatinib 50 mg IV dose (Treatment A) followed by a lorlatinib 100 mg single oral dose (Treatment B), or lorlatinib oral dose followed by lorlatinib IV dose. The IV dose is 100% bioavailable and was, therefore, considered to be the reference in this study. The reference lorlatinib 50 mg single IV dose was administered as 250 mL IV solution (0.20 mg/mL) over approximately 1.25 h at a constant rate in the morning of Day 1. Lorlatinib 100 mg single oral dose was administered as 4 × 25 mg immediate-release free base tablets in the morning of Day 1 with 240 mL ambient temperature water. Participants were instructed to swallow the lorlatinib tablets whole and to not manipulate or chew the tablets prior to swallowing. Both treatments were administered after an overnight fast of at least 10 h. To standardise the conditions on PK sampling days, during the first 4 h after dosing or start of the IV dose, participants were to refrain from eating and drinking beverages other than water or lying down (unless required for safety monitoring). Period 1 was defined as a 7-day period in which participants received Treatment A or B. Period 2 was defined as the 7-day period after Period 1, in which participants received the alternative treatment to before. Following treatment administration, participants were to undergo PK sampling for 144 h with a washout period of at least 10 days between successive lorlatinib doses. The study was conducted at a single Pfizer Clinical Research Unit (CRU) in New Haven, Connecticut, and participants were confined to the CRU from the time of admission (Day 0) until discharge (Day 7 of Period 2).
The detection range was 0.05–50 ng/mL or 1 to 1000 ng/mL for low and high concentration samples, respectively. […] Calibration standard responses were linear over the range of 2.50–2500 ng/mL; using a weighted (l/concentration^2) linear least squares regression. […] The lower limit of quantification (LLOQ) for lorlatinib and its metabolite was 2.50 ng/mL.
PK parameter values were calculated using an internally validated software system (eNCA). Actual sample collection times were used for the PK parameter analysis and samples below the LLOQ were set to 0. Maximum observed plasma concentration, Cmax, and time when Cmax was reached, Tmax, were determined from the observed values. The area under the curve (AUC) from time 0 to the time of the last quantifiable concentration (AUClast) was estimated using the linear/log trapezoidal method. AUCinf was calculated as AUClast + (Clast/kel), where Clast was the predicted plasma concentration at the last quantifiable time point estimated from the log-linear regression analysis and kel was the terminal phase rate constant calculated by a linear regression of the log-linear concentration–time curve. PK parameters based on terminal phase estimation were reported only where a well-characterized terminal phase was observed. A well-characterized terminal phase is defined as one with at least three data points, r^2 ≥ 0.9, and AUCextrap% ≤ 20. Metabolite-to-parent ratios were calculated after adjustment for molecular weights. Clearance (CL) for the IV dose and CL/F for the oral dose were calculated as dose/AUCinf. Volume of distribution during the terminal phase (area) was calculated as IV dose/(kel×AUCinf).
The hepatic extraction ratio was calculated for each participant as the hepatic blood clearance divided by hepatic blood flow.
Summary profiles (mean) of the lorlatinib plasma concentration–time data were plotted by treatment. Nominal PK sampling time was used for summary statistics and summary plots by sampling time.

[4] = rats; animal studies, no reference given; cited from earlier work
[5] = 100 mg single oral dose of [14C]lorlatinib, healthy participants
[6] = 100 mg oral tablets vs 50 mg IV, healthy participants, n = 11
[7] = lorlatinib 100 mg oral tablets, n = 11, geometric mean (geometric %CV)

For `C[C@H]1Oc2cc(cnc2N)-c2c(nn(C)c2C#N)CN(C)C(=O)c2ccc(F)cc21` [Lorlatinib, (10R)-7-amino-12-fluoro-2,10,16-trimethyl-15-oxo-10,15,16,17-tetrahydro-2H-8,4-(metheno)pyrazolo[4,3-h][2,5,11]-benzoxadiazacyclotetradecine-3-carbonitrile], the “Unchanged lorlatinib recovered in faeces” value [1, 5] is given as ~ 9%, the “Unchanged lorlatinib recovered in urine” value [1, 5] is given as under 1% and the “Total drug-related radioactivity (parent plus metabolites) recovered in urine” value ([1]; first of two values) is given as 48%. For the same compound, the “Total drug-related radioactivity (parent plus metabolites) recovered in urine” value ([1]; second of two values) was 28%, the Blood-to-plasma partitioning ratio [2] was 0.985 and the “Absolute oral bioavailability: ratio (test/reference) of adjusted means, AUCinf (dn)” value [3, 6] was 80.78%. The “Ratio (test/reference) of adjusted means, AUClast (dn)” value [3, 6] was 81.65%, the “Absolute oral bioavailability: ratio (test/reference) of adjusted means, AUCinf (dn)” value ([3]; 100 mg oral tablets vs 50 mg IV, healthy participants, n = 11, listed as lorlatinib) was 81% and the “Inter-subject variability (%CV) for AUCinf, AUClast and Cmax” value ([3]; both oral administration and IV dosing) was 30–38%. It also gave an AUC(0-inf) ([3]; human, plasma, iv, 50 mg, Reference, lorlatinib 50 mg IV, mixed-effects model, read-out: AUCinf (dn), adjusted geometric mean) of 5190 ng·h/mL, an AUC(0-t) ([3]; human, plasma, iv, 50 mg, Reference, lorlatinib 50 mg IV, mixed-effects model, read-out: AUClast (dn), adjusted geometric mean) of 5030 ng·h/mL and an AUC(0-inf) ([3]; human, plasma, iv, 50 mg, lorlatinib 50 mg IV, dose normalized, n = 11, geometric mean (geometric %CV), read-out: AUCinf (dn)) of 5150 ng·h/mL. The AUC(0-t) ([3]; human, plasma, iv, 50 mg, lorlatinib 50 mg IV, dose normalized, n = 11, geometric mean (geometric %CV), read-out: AUClast (dn)) was 4990 ng·h/mL, the half-life ([3]; human, plasma, iv, 50 mg, lorlatinib 50 mg IV, n = 11, arithmetic mean ± SD) was 27 h and the AUC(0-inf) ([3]; human, plasma, iv, 50 mg, lorlatinib 50 mg IV, n = 11, geometric mean (geometric %CV), read-out: AUCinf) was 5150 ng·h/mL. It also gave an AUC(0-t) ([3]; human, plasma, iv, 50 mg, lorlatinib 50 mg IV, n = 11, geometric mean (geometric %CV), read-out: AUClast) of 4990 ng·h/mL, an AUC(0-inf) ([3]; human, plasma, oral, 100 mg, Test, lorlatinib 100 mg oral tablets, mixed-effects model, normalized to 50 mg IV dose, read-out: AUCinf (dn), adjusted geometric mean) of 4190 ng·h/mL and a half-life ([3]; human, plasma, po, 100 mg, lorlatinib 100 mg oral tablets, n = 11, arithmetic mean ± SD) of about 25.5 h. It also gave an AUC(0-inf) ([3]; human, plasma, po, 100 mg, lorlatinib 100 mg oral tablets, single dose, fasted, n = 11, geometric mean (geometric %CV), read-out: AUCinf) of 8290 ng·h/mL, a Cmax ([3]; human, plasma, lorlatinib 50 mg IV, dose normalized, n = 11, geometric mean (geometric %CV), read-out: Cmax (dn)) of 392 ng/mL and a clearance ([3]; human, plasma, lorlatinib 50 mg IV, n = 11, geometric mean (geometric %CV)) of 162 mL/min. For the same compound, the Vd ([3]; human, plasma, lorlatinib 50 mg IV, n = 11, geometric mean (geometric %CV), read-out: Vss) was 305 L, the Tmax ([3]; human, plasma, lorlatinib 50 mg IV, n = 11, read-out: Tmax) was 1.28 h and the Vd/F ([3]; human, plasma, lorlatinib 100 mg oral tablets, n = 11, geometric mean (geometric %CV), read-out: Vz/F) was 440 L. For the same compound, the Cmax ([3]; lorlatinib 50 mg IV, n = 11, geometric mean (geometric %CV)) was 392 ng/mL, the “t½ (plasma terminal half-life)” value ([3]; lorlatinib 100 mg oral tablets, n = 11, arithmetic mean ± SD) was 25.54 ± 3.75 h and the AUClast [3, 7] was 8109 (33) ng.h/mL. The CL/F [3, 7] was 12.05 (34) L/h, the Cmax [3, 7] was 501 ng/mL and the Tmax ([3]; lorlatinib 100 mg oral tablets, n = 11) was 1.50 (1.00–4.02) h. For the same compound, the “Eh (hepatic extraction ratio)” value ([3]; printed in the 100 mg oral column, plasma clearance × blood-to-plasma ratio 0.985 / hepatic blood flow 90 L/hr, geometric mean (geometric %CV)) was 0.118 and the Absolute bioavailability [4] was “approximately 100%”.
